Laboratory results: EP0375164B1, “Antiviral compounds” (THE WELLCOME FOUNDATION LIMITED, priority 1988, dated 1990)

Legend:
[1] = Determination of oral bioavailability by urinary recovery after oral administration; type: in vivo; settings: Long Evans Rats, gavage, 50 mg/kg; percent of dose excreted in urine over 48 hour collection as the parent compound 1-(β-D-arabinofuranosyl)-5-prop-1-ynyluracil
Experimental: Tests in rats were carried out on compounds of the invention to determine their bioavailability by measuring the urinary recovery after oral administration, as a percentage of the dose administered. High levels of the parent compound, 1-(β-D-arabinofuranosyl)-5-prop-1-ynyluracil, in the urine indicated good absorption from the gut.
Long Evans Rats were administered the compound of Example 1 or the parent compound by gavage at a dose of 50 mg/kg. The urine was collected for 24 and 48 hours post-dose, ultrafiltered, and analysed by reverse-phase high-pressure liquid chromatography. The oral bioavailability of the Example 1 compound and the parent compound was expressed as the percent of the dose excreted in the urine over the 48 hour period of collection, as 1-(β-D-arabinofuranosyl)-5-prop-1-ynyluracil, i.e. the parent compound.

Vero cells = test: Cell toxicity in a cell growth inhibition assay (MTT uptake); type: cell-based; settings: concentration for 50% inhibition of cell viability at 96 hours
Experimental: Cell toxicity is assessed in a cell growth inhibition assay. Subconfluent cultures of Vero cells grown on 96-well microtiter dishes are exposed to different dilutions of drug, and cell viability determined daily on replicate cultures using uptake of a tetrazolium dye (MTT). The concentration required for a 50% inhibition of cell vaibility at 96 hours is termed CCID₅₀.

Row | Compound | Urinary Recovery (% of dose) [1] | CCID₅₀(µM) at 96 hr (Vero cells) [µM]
1 | 5-Prop-1-ynyl-1-(5-0-trimethylacetyl-β-D-arabinofuranosyl)uracil [Example 1] | 64.89 % of dose | 477
2 | CC#Cc1cn([C@@H]2O[C@H](CO)[C@@H](O)[C@@H]2O)c(=O)[nH]c1=O [Parent Compound, 1-(β-D-arabinofuranosyl)-5-prop-1-ynyluracil, reference compound] | 9.70 % of dose | 
